Reference: publication PMC4405286, “Extracellular vesicle sorting of α-Synuclein is regulated by sumoylation” (Acta Neuropathologica, 2015)
Like-named read-outs stand apart in the source and are kept apart here.

Molecular target: T1, SUMO-2 (Homo sapiens, UniProt P55854)
T1 construct: gene SUMO3; recombinant, untagged as far as told, pET11, E. coli (NMR, 15N-labelled); for titrations single Cys labelled with MFM probe
Experiment: fluorescence titration of MFM-labelled protein with SUVs, global fit
Format: binding

[1] = SUVs POPC:POPS:PI 85:10:5, too weak to be determined, bound set by POPS, acyl chains not given, MFM-labelled protein, 25 mM Na-HEPES, 100 mM KCl, pH 7.26, room temperature

T1 sequence (P55854 1-92): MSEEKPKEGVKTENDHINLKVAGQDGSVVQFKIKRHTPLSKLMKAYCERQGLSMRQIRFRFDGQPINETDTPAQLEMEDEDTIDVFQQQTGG

| Kd [1] [µM] | Molecule | other results |
| --- | --- | --- |
| – | PI(3)P | Kd (lipid in SUVs POPC:POPS:PI 85:10:5, per-lipid Kd from global fit, includes binding stoichiometry, acyl chains not given, MFM-labelled protein, 25 mM Na-HEPES, 100 mM KCl, pH 7.26, room temperature): ~4 µM |
| > 7 | PI(4,5)P2 | – |
| > 7 | PI(3,5)P2 | – |
| – | CCCCCCCC/C=C\CCCCCCCC(=O)O[C@H](COC(=O)CCCCCCCCCCCCCCC)COP(=O)([O-])OCC[N+](C)(C)C [POPC, 1-palmitoyl,2-oleoyl-sn-glycero-3-phosphocholine] | Kd: 180 ± 42 µM |
| > 7 | PI(5)P | – |
